Biological target: T1, TLR7 (Homo sapiens, UniProt Q9NYK1)
T1 sequence (Q9NYK1 27-1049): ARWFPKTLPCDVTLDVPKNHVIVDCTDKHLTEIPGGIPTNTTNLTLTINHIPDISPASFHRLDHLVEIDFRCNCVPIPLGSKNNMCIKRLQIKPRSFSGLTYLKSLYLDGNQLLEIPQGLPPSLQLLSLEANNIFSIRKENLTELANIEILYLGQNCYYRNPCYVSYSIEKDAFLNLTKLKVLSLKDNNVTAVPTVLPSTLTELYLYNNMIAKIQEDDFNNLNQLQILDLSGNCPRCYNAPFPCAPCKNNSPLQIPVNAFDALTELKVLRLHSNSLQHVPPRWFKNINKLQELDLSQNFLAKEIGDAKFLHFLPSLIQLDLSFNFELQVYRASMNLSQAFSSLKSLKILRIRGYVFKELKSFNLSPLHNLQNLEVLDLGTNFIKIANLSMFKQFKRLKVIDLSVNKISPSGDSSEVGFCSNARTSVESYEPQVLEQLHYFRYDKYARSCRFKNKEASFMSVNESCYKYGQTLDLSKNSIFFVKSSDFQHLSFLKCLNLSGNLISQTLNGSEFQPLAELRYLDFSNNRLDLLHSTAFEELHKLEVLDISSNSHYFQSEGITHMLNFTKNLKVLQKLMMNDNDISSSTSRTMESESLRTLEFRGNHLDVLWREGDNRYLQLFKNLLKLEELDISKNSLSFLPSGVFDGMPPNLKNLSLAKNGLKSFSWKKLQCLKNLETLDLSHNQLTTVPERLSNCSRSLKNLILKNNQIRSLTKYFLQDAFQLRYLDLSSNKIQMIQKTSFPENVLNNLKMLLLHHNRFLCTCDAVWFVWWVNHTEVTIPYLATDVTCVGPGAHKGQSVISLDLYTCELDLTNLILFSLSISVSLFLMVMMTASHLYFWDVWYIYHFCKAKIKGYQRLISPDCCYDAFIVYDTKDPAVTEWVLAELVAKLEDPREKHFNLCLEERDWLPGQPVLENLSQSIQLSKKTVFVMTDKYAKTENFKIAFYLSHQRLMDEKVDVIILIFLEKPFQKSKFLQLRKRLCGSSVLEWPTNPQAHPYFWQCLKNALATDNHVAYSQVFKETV
Assay: Dose-response relationship between antagonist and R848, human TLR7 reporter gene assay
Assay type: cell-based
Design: host or cells: HEK293 (TLR7/NF-κB/SEAPorter)
Description: Compounds were dissolved in dimethyl sulfoxide. Human TLR7 reporter cell line (Novus Biological) were seeded in 96-well microtiter plate (AGC techno glass) at 5 × 10^4 cells/well in DMEM (GIBCO) with 10% fetal bovine serum (GIBCO), and 10 μg ml^−1 Blastcidin S HCl (GIBCO) and incubated at 37 °C in 5% CO2. The plates were incubated over-night and then addition with various concentrations of compound. After 30 min, R848 (human TLR7/8 ligand) that was diluted with the medium was added, wherein final concentration was adjusted to 0.01, 0.03, 0.1, 0.3, 1, 3, 10, 30, 100, 300 and 1000 μM. The plates were then incubated an additional 20 ± 1 h at 37 °C in 5% CO2, and then the SEAP activity was measured as activation of human TLR7. The SEAP activity was evaluated as follows: pNPP (Invitrogen) was added to the incubated sample (50 μl/well); after 15 min, 4 mol l^−1 sodium hydroxide solution (nacalai tesque) was added thereto (50 μl/well) to quench the reaction; and the absorbance of each sample was measured at 405 nm with microplate reader SpectraMax M4 (Molecular Devices).

## CCOc1nc(N)c2nc(-c3cncc(F)c3)n(Cc3ccc(CN4C[C@@H]5C[C@H]4CN5C)cc3)c2n1 [Cpd-6]
  mode of action against R848: acted as antagonists
Cpd-6 0.001 µM, log10[R848 (µM)] 0
  TLR7 reporter signal: 12.4492
Cpd-6 0.001 µM, log10[R848 (µM)] 0.477121
  TLR7 reporter signal: 42.5203
Cpd-6 0.001 µM, log10[R848 (µM)] 1
  TLR7 reporter signal: 87.7267
Cpd-6 0.001 µM, log10[R848 (µM)] 1.47712
  TLR7 reporter signal: 99.7073
Cpd-6 0.001 µM, log10[R848 (µM)] 2
  TLR7 reporter signal: 100.849
Cpd-6 0.001 µM, log10[R848 (µM)] 2.47712
  TLR7 reporter signal: 102.716
Cpd-6 0.001 µM, log10[R848 (µM)] 3
  TLR7 reporter signal: 99.4752
Cpd-6 0.001 µM, log10[R848 (µM)] -0.522879
  TLR7 reporter signal: 1.192
Cpd-6 0.001 µM, log10[R848 (µM)] -1
  TLR7 reporter signal: 0.7791
Cpd-6 0.001 µM, log10[R848 (µM)] -1.52288
  TLR7 reporter signal: 0.2957
Cpd-6 0.001 µM, log10[R848 (µM)] -2
  TLR7 reporter signal: -0.1404
Cpd-6 0.003 µM, log10[R848 (µM)] 0
  TLR7 reporter signal: 9.923
Cpd-6 0.003 µM, log10[R848 (µM)] 0.477121
  TLR7 reporter signal: 37.8265
Cpd-6 0.003 µM, log10[R848 (µM)] 1
  TLR7 reporter signal: 84.946
Cpd-6 0.003 µM, log10[R848 (µM)] 1.47712
  TLR7 reporter signal: 98.5645
Cpd-6 0.003 µM, log10[R848 (µM)] 2
  TLR7 reporter signal: 102.64
Cpd-6 0.003 µM, log10[R848 (µM)] 2.47712
  TLR7 reporter signal: 101.614
Cpd-6 0.003 µM, log10[R848 (µM)] 3
  TLR7 reporter signal: 100.614
Cpd-6 0.003 µM, log10[R848 (µM)] -0.522879
  TLR7 reporter signal: 0.6697
Cpd-6 0.003 µM, log10[R848 (µM)] -1
  TLR7 reporter signal: 0.7155
Cpd-6 0.003 µM, log10[R848 (µM)] -1.52288
  TLR7 reporter signal: 0.0547
Cpd-6 0.003 µM, log10[R848 (µM)] -2
  TLR7 reporter signal: -0.2513
Cpd-6 0.01 µM, log10[R848 (µM)] -2
  TLR7 reporter signal: -0.4139
Cpd-6 0.1 μM, log10[R848 (µM)] 0
  TLR7 reporter signal: 1.818
Cpd-6 0.1 μM, log10[R848 (µM)] 0.477121
  TLR7 reporter signal: 11.9813
Cpd-6 0.1 μM, log10[R848 (µM)] 1
  TLR7 reporter signal: 58.4894
Cpd-6 0.1 μM, log10[R848 (µM)] 1.47712
  TLR7 reporter signal: 91.4766
Cpd-6 0.1 μM, log10[R848 (µM)] 2
  TLR7 reporter signal: 100.668
Cpd-6 0.1 μM, log10[R848 (µM)] 2.47712
  TLR7 reporter signal: 102.716
Cpd-6 0.1 μM, log10[R848 (µM)] 3
  TLR7 reporter signal: 98.9371
Cpd-6 0.1 μM, log10[R848 (µM)] -0.522879
  TLR7 reporter signal: 0.03031
Cpd-6 0.1 μM, log10[R848 (µM)] -1
  TLR7 reporter signal: 0.4916
Cpd-6 0.1 μM, log10[R848 (µM)] -1.52288
  TLR7 reporter signal: 0.6438
Cpd-6 0.1 μM, log10[R848 (µM)] -2
  TLR7 reporter signal: -0.1471
Cpd-6 0.3 μM, log10[R848 (µM)] 0
  TLR7 reporter signal: 0.5455
Cpd-6 0.3 μM, log10[R848 (µM)] 0.477121
  TLR7 reporter signal: 4.006
Cpd-6 0.3 μM, log10[R848 (µM)] 1
  TLR7 reporter signal: 31.2508
Cpd-6 0.3 μM, log10[R848 (µM)] 1.47712
  TLR7 reporter signal: 73.4318
Cpd-6 0.3 μM, log10[R848 (µM)] 2
  TLR7 reporter signal: 95.1399
Cpd-6 0.3 μM, log10[R848 (µM)] 2.47712
  TLR7 reporter signal: 101.486
Cpd-6 0.3 μM, log10[R848 (µM)] 3
  TLR7 reporter signal: 99.1034
Cpd-6 0.3 μM, log10[R848 (µM)] -0.522879
  TLR7 reporter signal: -0.01626
Cpd-6 0.3 μM, log10[R848 (µM)] -1
  TLR7 reporter signal: 0.3371
Cpd-6 0.3 μM, log10[R848 (µM)] -1.52288
  TLR7 reporter signal: 0.2617
Cpd-6 0.3 μM, log10[R848 (µM)] -2
  TLR7 reporter signal: -0.3984
Cpd-6 1 μM, log10[R848 (µM)] 0
  TLR7 reporter signal: 0.1648
Cpd-6 1 μM, log10[R848 (µM)] 0.477121
  TLR7 reporter signal: 0.6756
Cpd-6 1 μM, log10[R848 (µM)] 1
  TLR7 reporter signal: 11.4786
Cpd-6 1 μM, log10[R848 (µM)] 1.47712
  TLR7 reporter signal: 45.6507
Cpd-6 1 μM, log10[R848 (µM)] 2
  TLR7 reporter signal: 84.5912
Cpd-6 1 μM, log10[R848 (µM)] 2.47712
  TLR7 reporter signal: 96.6131
Cpd-6 1 μM, log10[R848 (µM)] 3
  TLR7 reporter signal: 99.4242
Cpd-6 1 μM, log10[R848 (µM)] -0.522879
  TLR7 reporter signal: -0.03548
Cpd-6 1 μM, log10[R848 (µM)] -1
  TLR7 reporter signal: 0.7835
Cpd-6 1 μM, log10[R848 (µM)] -1.52288
  TLR7 reporter signal: 0.4073
Cpd-6 1 μM, log10[R848 (µM)] -2
  TLR7 reporter signal: -0.4287
Cpd-6 3 μM, log10[R848 (µM)] 0
  TLR7 reporter signal: -0.1671
Cpd-6 3 μM, log10[R848 (µM)] 0.477121
  TLR7 reporter signal: -0.3319
Cpd-6 3 μM, log10[R848 (µM)] 1
  TLR7 reporter signal: 1.145
Cpd-6 3 μM, log10[R848 (µM)] 1.47712
  TLR7 reporter signal: 10.9886
Cpd-6 3 μM, log10[R848 (µM)] 2
  TLR7 reporter signal: 45.7638
Cpd-6 3 μM, log10[R848 (µM)] 2.47712
  TLR7 reporter signal: 76.6561
Cpd-6 3 μM, log10[R848 (µM)] 3
  TLR7 reporter signal: 93.6623
Cpd-6 3 μM, log10[R848 (µM)] -0.522879
  TLR7 reporter signal: -0.0924
Cpd-6 3 μM, log10[R848 (µM)] -1
  TLR7 reporter signal: 0.3881
Cpd-6 3 μM, log10[R848 (µM)] -1.52288
  TLR7 reporter signal: 0.1811
Cpd-6 3 μM, log10[R848 (µM)] -2
  TLR7 reporter signal: -0.3984
Cpd-6 10 μM, log10[R848 (µM)] 0
  TLR7 reporter signal: -0.3585
Cpd-6 10 μM, log10[R848 (µM)] 0.477121
  TLR7 reporter signal: 0.00887
Cpd-6 10 μM, log10[R848 (µM)] 1
  TLR7 reporter signal: -0.3311
Cpd-6 10 μM, log10[R848 (µM)] 1.47712
  TLR7 reporter signal: 1.483
Cpd-6 10 μM, log10[R848 (µM)] 2
  TLR7 reporter signal: 7.633
Cpd-6 10 μM, log10[R848 (µM)] 2.47712
  TLR7 reporter signal: 30.5109
Cpd-6 10 μM, log10[R848 (µM)] 3
  TLR7 reporter signal: 70.7738
Cpd-6 10 μM, log10[R848 (µM)] -0.522879
  TLR7 reporter signal: 0.08501
Cpd-6 10 μM, log10[R848 (µM)] -1
  TLR7 reporter signal: 0.6054
Cpd-6 10 μM, log10[R848 (µM)] -1.52288
  TLR7 reporter signal: 0.5159
Cpd-6 10 μM, log10[R848 (µM)] -2
  TLR7 reporter signal: -0.6941
Cpd-6 30 μM, log10[R848 (µM)] 0
  TLR7 reporter signal: -0.8205
Cpd-6 30 μM, log10[R848 (µM)] 0.477121
  TLR7 reporter signal: -0.1671
Cpd-6 30 μM, log10[R848 (µM)] 1
  TLR7 reporter signal: -0.3932
Cpd-6 30 μM, log10[R848 (µM)] 1.47712
  TLR7 reporter signal: 0.7037
Cpd-6 30 μM, log10[R848 (µM)] 2
  TLR7 reporter signal: 0.5559
Cpd-6 30 μM, log10[R848 (µM)] 2.47712
  TLR7 reporter signal: 4.178
Cpd-6 30 μM, log10[R848 (µM)] 3
  TLR7 reporter signal: 28.3207
Cpd-6 30 μM, log10[R848 (µM)] -0.522879
  TLR7 reporter signal: -0.2084
Cpd-6 30 μM, log10[R848 (µM)] -1
  TLR7 reporter signal: 0.05618
Cpd-6 30 μM, log10[R848 (µM)] -1.52288
  TLR7 reporter signal: 0.1597
Cpd-6 30 μM, log10[R848 (µM)] -2
  TLR7 reporter signal: -0.9107
Cpd-6 100 μM, log10[R848 (µM)] 0
  TLR7 reporter signal: -0.4154
Cpd-6 100 μM, log10[R848 (µM)] 0.477121
  TLR7 reporter signal: -0.3459
Cpd-6 100 μM, log10[R848 (µM)] 1
  TLR7 reporter signal: -0.6712
Cpd-6 100 μM, log10[R848 (µM)] 1.47712
  TLR7 reporter signal: 0.8663
Cpd-6 100 μM, log10[R848 (µM)] 2
  TLR7 reporter signal: 0.5381
Cpd-6 100 μM, log10[R848 (µM)] 2.47712
  TLR7 reporter signal: 4.485
Cpd-6 100 μM, log10[R848 (µM)] 3
  TLR7 reporter signal: 25.5163
Cpd-6 100 μM, log10[R848 (µM)] -0.522879
  TLR7 reporter signal: -0.01478
Cpd-6 100 μM, log10[R848 (µM)] -1
  TLR7 reporter signal: 0.612
Cpd-6 100 μM, log10[R848 (µM)] -1.52288
  TLR7 reporter signal: 1.063
Cpd-6 100 μM, log10[R848 (µM)] -2
  TLR7 reporter signal: -0.5529
